From PubChem BioAssay AID1963873 (Molecular Pharmacology Branch, DTP, NCI, 2024)

Tested on: 276233-004-R-J1-PDC KRAS spheroids with HUVEC/MSC, viability
Assay: Anticancer human tumor 276233-004-R-J1-PDC patient-derived colon adenocarcinoma cell line growth inhibition [KRAS2]
Conditions: for viability, T/C: stronger effect = lower value
Outline: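 Combination screen of spheroid viability in tumor-cell co-cultures with endothelial (HUVEC) and mesenchymal stem cell stroma. Each agent was tested in half-log dilutions, topping at clinical Cmax or at 10 microM without a known Cmax.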

[1] = curve of first compound, second compound 0.1 µM
[2] = curve of first compound, second compound 0.316 µM
[3] = curve of first compound, second compound 1 µM
[4] = curve of first compound, second compound 3.16 µM
[5] = curve of first compound, second compound 10 µM
[6] = second compound 0.1 µM, first compound 0.000316 µM
[7] = second compound 0.1 µM, first compound 0.001 µM
[8] = second compound 0.1 µM, first compound 0.00316 µM
[9] = second compound 0.1 µM, first compound 0.01 µM
[10] = second compound 0.1 µM, first compound 0.0316 µM
[11] = second compound 0.1 µM, first compound 0.1 µM
[12] = second compound 0.316 µM, first compound 0.000316 µM
[13] = second compound 0.316 µM, first compound 0.001 µM
[14] = second compound 0.316 µM, first compound 0.00316 µM
[15] = second compound 0.316 µM, first compound 0.01 µM
[16] = second compound 0.316 µM, first compound 0.0316 µM
[17] = second compound 0.316 µM, first compound 0.1 µM
[18] = second compound 1 µM, first compound 0.000316 µM
[19] = second compound 1 µM, first compound 0.001 µM
[20] = second compound 1 µM, first compound 0.00316 µM
[21] = second compound 1 µM, first compound 0.01 µM
[22] = second compound 1 µM, first compound 0.0316 µM
[23] = second compound 1 µM, first compound 0.1 µM
[24] = second compound 3.16 µM, first compound 0.000316 µM
[25] = second compound 3.16 µM, first compound 0.001 µM
[26] = second compound 3.16 µM, first compound 0.00316 µM
[27] = second compound 3.16 µM, first compound 0.01 µM
[28] = second compound 3.16 µM, first compound 0.0316 µM
[29] = second compound 3.16 µM, first compound 0.1 µM
[30] = second compound 10 µM, first compound 0.0316 µM
[31] = second compound 10 µM, first compound 0.1 µM
[32] = second compound 0.1 µM, first compound 0.316 µM
[33] = second compound 0.1 µM, first compound 1 µM
[34] = second compound 0.1 µM, first compound 3.16 µM
[35] = second compound 0.1 µM, first compound 10 µM
[36] = second compound 0.316 µM, first compound 0.316 µM
[37] = second compound 0.316 µM, first compound 1 µM
[38] = second compound 0.316 µM, first compound 3.16 µM
[39] = second compound 0.316 µM, first compound 10 µM
[40] = second compound 1 µM, first compound 0.316 µM
[41] = second compound 1 µM, first compound 1 µM
[42] = second compound 1 µM, first compound 3.16 µM
[43] = second compound 1 µM, first compound 10 µM
[44] = second compound 3.16 µM, first compound 0.316 µM
[45] = second compound 3.16 µM, first compound 1 µM
[46] = second compound 3.16 µM, first compound 3.16 µM
[47] = second compound 3.16 µM, first compound 10 µM
[48] = second compound 10 µM, first compound 0.316 µM
[49] = second compound 10 µM, first compound 1 µM
[50] = second compound 10 µM, first compound 3.16 µM
[51] = second compound 10 µM, first compound 10 µM
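Note: cells exposed to agents for seven days before viability read.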
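Throughout, for viability, T/C: 100% = DMSO vehicle control wells and lower values mean fewer viable cells.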

CC(C)n1nc(-c2ccc3oc(N)nc3c2)c2c(N)ncnc21 + C=CC(=O)N1CCN(c2nc(=O)n(-c3c(C)ccnc3C(C)C)c3nc(-c4c(O)cccc4F)c(F)cc23)C(C)C1
IC50 [1]: > 100 nM | IC50 [2]: 27.1 nM | IC50 [3]: 29.5 nM | IC50 [4]: > 100 nM | IC50 [5]: > 100 nM | viability, T/C [6]: 88.4% | viability, T/C [7]: 91.7% | viability, T/C [8]: 64.8% | viability, T/C [9]: 63.4% | viability, T/C [10]: 50.8% | viability, T/C [11]: 56.2% | viability, T/C [12]: 105% | viability, T/C [13]: 94.3% | viability, T/C [14]: 76.6% | viability, T/C [15]: 57.2% | viability, T/C [16]: 45.4% | viability, T/C [17]: 49.8% | viability, T/C [18]: 94.4% | viability, T/C [19]: 86.8% | viability, T/C [20]: 105% | viability, T/C [21]: 64.2% | viability, T/C [22]: 48.4% | viability, T/C [23]: 49.7% | viability, T/C [24]: 87% | viability, T/C [25]: 80.4% | viability, T/C [26]: 75.8% | viability, T/C [27]: 59.2% | viability, T/C [28]: 51% | viability, T/C [29]: 51.5% | viability, T/C (second compound 10 µM, first compound 0.000316 µM): 88.2% | viability, T/C (second compound 10 µM, first compound 0.001 µM): 84.9% | viability, T/C (second compound 10 µM, first compound 0.00316 µM): 67.8% | viability, T/C (second compound 10 µM, first compound 0.01 µM): 72% | viability, T/C [30]: 54.9% | viability, T/C [31]: 58%

CNCc1ccccc1-c1csc(C(C)Nc2nc(C)nc3cc(OC)c(OC)cc23)c1 (stereo not drawn)
viability, T/C (compound 10 µM): 1.13% [middle of 15 runs] | IC50 (compound alone, run of 07/19/2021): 1.25 µM [middle of 4 runs] | IC50 (compound alone, run of 07/26/2021): 1.67 µM [middle of 5 runs]

COc1cc(Nc2ncc3c(n2)-c2ccc(Cl)cc2C(c2c(F)cccc2OC)=NC3)ccc1C(=O)O + C=CC(=O)N1CCN(c2nc(=O)n(-c3c(C)ccnc3C(C)C)c3nc(-c4c(O)cccc4F)c(F)cc23)C(C)C1
IC50 [1]: > 10000 nM | IC50 [2]: > 10000 nM | IC50 [3]: > 10000 nM | IC50 [4]: > 10000 nM | IC50 [5]: > 10000 nM | viability, T/C [10]: 132% | viability, T/C [11]: 118% | viability, T/C [32]: 117% | viability, T/C [33]: 104% | viability, T/C [34]: 116% | viability, T/C [35]: 88.3% | viability, T/C [16]: 112% | viability, T/C [17]: 110% | viability, T/C [36]: 117% | viability, T/C [37]: 111% | viability, T/C [38]: 99% | viability, T/C [39]: 97% | viability, T/C [22]: 102% | viability, T/C [23]: 118% | viability, T/C [40]: 108% | viability, T/C [41]: 115% | viability, T/C [42]: 110% | viability, T/C [43]: 96.5% | viability, T/C [28]: 139% | viability, T/C [29]: 125% | viability, T/C [44]: 110% | viability, T/C [45]: 105% | viability, T/C [46]: 96.3% | viability, T/C [47]: 89.1% | viability, T/C [30]: 88.3% | viability, T/C [31]: 107% | viability, T/C [48]: 87.4% | viability, T/C [49]: 91.6% | viability, T/C [50]: 79.3% | viability, T/C [51]: 86.5%

CC(C)n1nc(-c2ccc3oc(N)nc3c2)c2c(N)ncnc21 + C=CC(=O)N1CCN(c2nc(OCC3CCCN3C)nc3c2CCN(c2cccc4cccc(C)c24)C3)CC1CC#N
IC50 (curve of first compound, second compound 0.0316 µM): > 100 nM | IC50 [1]: > 100 nM | IC50 [2]: > 100 nM | IC50 [3]: > 100 nM | IC50 [4]: 45.8 nM | viability, T/C (second compound 0.0316 µM, first compound 0.000316 µM): 88.4% | viability, T/C (second compound 0.0316 µM, first compound 0.001 µM): 143% | viability, T/C (second compound 0.0316 µM, first compound 0.00316 µM): 83% | viability, T/C (second compound 0.0316 µM, first compound 0.01 µM): 85.3% | viability, T/C (second compound 0.0316 µM, first compound 0.0316 µM): 63.2% | viability, T/C (second compound 0.0316 µM, first compound 0.1 µM): 57.4% | viability, T/C [6]: 95.8% | viability, T/C [7]: 85.6% | viability, T/C [8]: 80.9% | viability, T/C [9]: 62.8% | viability, T/C [10]: 63.2% | viability, T/C [11]: 55.6% | viability, T/C [12]: 85.9% | viability, T/C [13]: 90.2% | viability, T/C [14]: 87.6% | viability, T/C [15]: 62.9% | viability, T/C [16]: 56.4% | viability, T/C [17]: 52.8% | viability, T/C [18]: 82.8% | viability, T/C [19]: 110% | viability, T/C [20]: 81.2% | viability, T/C [21]: 70.9% | viability, T/C [22]: 65.5% | viability, T/C [23]: 70.1% | viability, T/C [24]: 72.6% | viability, T/C [25]: 55.3% | viability, T/C [26]: 69.8% | viability, T/C [27]: 75.6% | viability, T/C [28]: 65.8% | viability, T/C [29]: 16.1%

CC(C)NCC(C(=O)N1CCN(c2ncnc3c2C(C)CC3O)CC1)c1ccc(Cl)cc1 (stereo not drawn) + CC1OCC2(CCN(c3cnc(Sc4ccnc(N)c4Cl)c(N)n3)CC2)C1N
IC50 [1]: > 10000 nM | IC50 [2]: 2080 nM | IC50 [3]: 697 nM | IC50 [4]: 343 nM | IC50 [5]: 183 nM | viability, T/C [10]: 77.2% | viability, T/C [11]: 75.2% | viability, T/C [32]: 56.3% | viability, T/C [33]: 65.9% | viability, T/C [34]: 56.1% | viability, T/C [35]: 51.5% | viability, T/C [16]: 90.4% | viability, T/C [17]: 69% | viability, T/C [36]: 55.8% | viability, T/C [37]: 52.8% | viability, T/C [38]: 49.5% | viability, T/C [39]: 47.5% | viability, T/C [22]: 68% | viability, T/C [23]: 59.5% | viability, T/C [40]: 48.4% | viability, T/C [41]: 52.8% | viability, T/C [42]: 48.1% | viability, T/C [43]: 40.2% | viability, T/C [28]: 63.3% | viability, T/C [29]: 58.4% | viability, T/C [44]: 52.1% | viability, T/C [45]: 41.4% | viability, T/C [46]: 37.1% | viability, T/C [47]: 31.5% | viability, T/C [30]: 59.1% | viability, T/C [31]: 57% | viability, T/C [48]: 38.1% | viability, T/C [49]: 41.7% | viability, T/C [50]: 36.1% | viability, T/C [51]: 19.1%
